molecular target: T1, CCXCKR2 receptor (Homo sapiens, UniProt P25106); assay: Displacement of 125I-labeled SDF-1 from the CCXCKR2 receptor on MCF-7 and/or CCXCKR2-transfected MDA-MB-435S cells (radioligand binding, filtration); conditions: not given
T1 construct: expressed in transfected cells; host or cells: MDA-MB-435S transfected with pcDNA3.1(+)-hRDC1 and/or MCF-7 (endogenous receptor)
T1 sequence (P25106 whole entry): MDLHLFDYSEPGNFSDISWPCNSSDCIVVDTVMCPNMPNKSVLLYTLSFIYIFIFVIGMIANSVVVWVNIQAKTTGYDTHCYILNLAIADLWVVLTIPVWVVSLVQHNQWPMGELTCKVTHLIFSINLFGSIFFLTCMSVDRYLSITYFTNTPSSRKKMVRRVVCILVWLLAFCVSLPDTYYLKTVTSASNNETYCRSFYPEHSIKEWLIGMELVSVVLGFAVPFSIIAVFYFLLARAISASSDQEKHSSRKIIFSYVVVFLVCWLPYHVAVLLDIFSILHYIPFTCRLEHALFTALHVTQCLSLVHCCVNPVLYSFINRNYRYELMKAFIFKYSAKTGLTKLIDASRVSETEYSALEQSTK

`Cc1cccc(Cn2cc(C(=O)c3ccc(C)c(C)c3)c(=O)c3ccccc32)c1` [Example 9] and `Cc1ccc(C(=O)c2cn(Cc3cccc(F)n3)c3ccccc3c2=O)cc1C` [Example 70] cannot be ordered by IC50: under 100 nM for the first, under 100 nM for the second.

same assay, conditions: 125I SDF-1, 3 hr at 4° C., MCF-7 and/or MDA-MB-435S cells; read-out: Activity (concentration displacing at least 50% of the SDF-1 from the CCXCKR2 receptor)

`COc1ccc(C(=O)c2cn(Cc3cccc(C)n3)c3ncccc3c2=O)cc1C` [Example 162] and `COc1ccc(C(=O)c2cn(Cc3cccc(C)n3)c3ncccc3c2=O)cc1F` [Example 163] cannot be ordered by IC50: under 100 nM for the first, under 100 nM for the second.

`Cc1ccc(C(=O)c2cn(Cc3ccccc3F)c3ccccc3c2=O)nc1C` [Example 49] and `Cc1cccc(Cn2cc(C(=O)c3ccc(C)c(C)n3)c(=O)c3ccccc32)n1` [Example 96] cannot be ordered by IC50: under 100 nM for the first, under 100 nM for the second.

`Cc1ccc(C(=O)c2cn(Cc3cccc(C(F)(F)F)n3)c3ccccc3c2=O)nc1C` [Example 79] and `COc1ccc(C(=O)c2cn(Cc3cccc(C(F)(F)F)n3)c3ccccc3c2=O)cc1F` [Example 217] cannot be ordered by IC50: under 100 nM for the first, under 100 nM for the second.

First: Cc1ccc(C(=O)c2cn(Cc3c(C)cccc3C)c3ccccc3c2=O)cc1C [Example 58]
Second: Cc1ccc(C(=O)c2cn(Cc3cccc(C)c3F)c3ccccc3c2=O)cc1C [Example 45]
The IC50 of the first is higher: 500 to 20000 nM for the first, under 100 nM for the second. The second is the more potent here.

First: O=C(c1ccccc1C(=O)N1CCC1)c1cn(Cc2cccc(Br)n2)c2ccccc2c1=O [Example 171]
Second: CNC(=O)c1ccccc1C(=O)c1cn(Cc2cccc(Br)n2)c2ccccc2c1=O [Example 169]
The IC50 of the first is lower: under 100 nM for the first, 500 to 20000 nM for the second. The first is the more potent here.

First: O=C(c1ccc(C(F)(F)F)nc1)c1cn(Cc2cccc(Br)c2)c2ccccc2c1=O [Example 224]
Second: CCc1ccc(C(=O)c2cn(Cc3cccc(Cl)c3)c3ccccc3c2=O)cn1 [Example 244]
The IC50 of the first is higher: 500 to 20000 nM for the first, 100 to 500 nM for the second. The second is the more potent here.

`CCc1ccc(C(=O)c2cn(Cc3cccc(Br)n3)c3ccccc3c2=O)cc1` [Example 115] and `CSc1ccc(C(=O)c2cn(Cc3cccc(Br)n3)c3ccccc3c2=O)cc1` [Example 186] cannot be ordered by IC50: under 100 nM for the first, under 100 nM for the second.

`O=C(c1ccncc1)c1cn(Cc2ccccn2)c2ccccc2c1=O` [Example 16] and `Cc1cccc(Cn2cc(C(=O)c3cccnc3)c(=O)c3ccccc32)n1` [Example 35] fall in the same range of IC50: 500 to 20000 nM for the first, 500 to 20000 nM for the second.

First: Cc1ccc(C(=O)c2cn(Cc3cccc(-c4ccccc4)n3)c3ccccc3c2=O)cc1C [Example 42]
Second: Cc1ccc(C(=O)c2cn(Cc3cccc(-c4cncnc4)n3)c3ccccc3c2=O)cc1C [Example 44]
The IC50 of the first is higher: 100 to 500 nM for the first, under 100 nM for the second. The second is the more potent here.

`COc1ccc(C(=O)c2cn(Cc3cncc(C)n3)c3ccccc3c2=O)cc1F` [Example 225] and `COc1ccc(C(=O)c2cn(Cc3cccc(C)n3)c3ccccc3c2=O)cc1F` [Example 183] cannot be ordered by IC50: under 100 nM for the first, under 100 nM for the second.

Compared with `Cc1cc(C(=O)c2cn(Cc3cccc(C)n3)c3ccccc3c2=O)ccn1` [Example 25], `Cc1cccc(Cn2cc(C(=O)c3cnc(C)c(C)c3)c(=O)c3ccccc32)n1` [Example 50] is lower in IC50: 500 to 20000 nM for the first, under 100 nM for the second.

First: Cc1cccc(Cn2cc(C(=O)c3ccccc3N3CCOCC3)c(=O)c3ccccc32)n1 [Example 205]
Second: Cc1ccc(C(=O)c2cn(Cc3cccc(N4CCOCC4)n3)c3ccccc3c2=O)cc1C [Example 71]
The IC50 of the first is lower: under 100 nM for the first, 100 to 500 nM for the second. The first is the more potent here.

`Cc1cnc(C(=O)c2cn(Cc3cccc(Br)n3)c3ccccc3c2=O)cc1C` [Example 94] and `Cc1ccc(C(=O)c2cn(Cc3cccc(Br)n3)c3ccccc3c2=O)cc1C` [Example 51] cannot be ordered by IC50: under 100 nM for the first, under 100 nM for the second.

First: Cc1ccc(C(=O)c2cn(Cc3cccc(Br)n3)c3ccccc3c2=O)nc1 [Example 151]
Second: Cc1ccc(C(=O)c2cn(Cc3cccc(C)n3)c3ccccc3c2=O)nc1 [Example 221]
The IC50 of the first is lower: under 100 nM for the first, 500 to 20000 nM for the second.

`COc1ccc(C(=O)c2cn(Cc3cccc(Br)n3)c3ncccc3c2=O)cc1F` [Example 174] and `COc1ccc(C(=O)c2cn(Cc3cccc(Br)n3)c3ncccc3c2=O)cc1C` [Example 160] cannot be ordered by IC50: under 100 nM for the first, under 100 nM for the second.

First: O=C(c1ccc(O)nc1)c1cn(Cc2cccc(Br)n2)c2ccccc2c1=O [Example 210]
Second: Cc1ccc(C(=O)c2cn(Cc3cccc(Br)n3)c3ccccc3c2=O)cn1 [Example 220]
The IC50 of the first is higher: 500 to 20000 nM for the first, under 100 nM for the second.

First: COc1ccc(C(=O)c2cn(Cc3cccc(Br)c3)c3ccc(C)nc3c2=O)cc1F [Example 238]
Second: COc1ccc(C(=O)c2cn(Cc3cccc(Cl)c3)c3ccc(C)nc3c2=O)cc1C [Example 234]
The IC50 of the first is higher: 500 to 20000 nM for the first, 100 to 500 nM for the second.

`O=C(c1ccc2c(c1)OCCO2)c1cn(Cc2cccc(Br)n2)c2ccccc2c1=O` [Example 113] and `O=C(c1ccc2c(c1)OCCO2)c1cn(Cc2cccc(Cl)c2)c2ccccc2c1=O` [Example 233] cannot be ordered by IC50: under 100 nM for the first, under 100 nM for the second.

First: COc1ccc(C(=O)c2cn(Cc3cccc(Br)n3)c3ccccc3c2=O)cc1C(=O)N(C)C [Example 181]
Second: CCOc1ccc(C(=O)c2cn(Cc3cccc(Br)n3)c3ccccc3c2=O)cc1C [Example 132]
The IC50 of the first is higher: 500 to 20000 nM for the first, under 100 nM for the second.

`COc1cccc(C(=O)c2cn(Cc3cccc(Br)n3)c3ccccc3c2=O)c1` [Example 141] and `COc1ccc(C(=O)c2cn(Cc3cccc(Br)n3)c3ccccc3c2=O)cn1` [Example 189] cannot be ordered by IC50: under 100 nM for the first, under 100 nM for the second.

Compared with `Cc1ccc(C(=O)c2cn(Cc3ccccc3F)c3ccncc3c2=O)cc1C` [Example 46], `Cc1cccc(Cn2cc(C(=O)c3ccc(C)c(C)c3)c(=O)c3cnccc32)c1` [Example 47] is lower in IC50: 500 to 20000 nM for the first, 100 to 500 nM for the second.

`Cc1ccc(C(=O)c2cn(Cc3cccc(N(C)C)n3)c3ccccc3c2=O)cc1C` [Example 92] and `Cc1ccc(C(=O)c2cn(Cc3cccc(O)n3)c3ccccc3c2=O)cc1C` [Example 213] fall in the same range of IC50: 500 to 20000 nM for the first, 500 to 20000 nM for the second.

Compared with `COc1ccc(C(=O)c2cn(Cc3cccc(C)n3)c3cccnc3c2=O)cc1C` [Example 206], `Cc1cccc(Cn2cc(C(=O)c3ccc(C)c(C)c3)c(=O)c3ncccc32)n1` [Example 134] is lower in IC50: 500 to 20000 nM for the first, under 100 nM for the second. The second is the more potent here.

`COc1ccc(C(=O)c2cn(Cc3cccc(Cl)c3)c3ccccc3c2=O)cc1` [Example 243] and `Cc1cccc(Cn2cc(C(=O)c3ccc(Cl)cc3)c(=O)c3ccccc32)n1` [Example 184] cannot be ordered by IC50: under 100 nM for the first, under 100 nM for the second.

`Cc1ccc(C(=O)c2cn(Cc3cccc(Br)n3)c3ccc(F)cc3c2=O)cc1C` [Example 53] and `Cc1ccc(C(=O)c2cn(Cc3cccc(Br)n3)c3cc(F)ccc3c2=O)cc1C` [Example 59] cannot be ordered by IC50: under 100 nM for the first, under 100 nM for the second.

`CCc1ccc(C(=O)c2cn(Cc3cccc(Br)n3)c3ccccc3c2=O)cn1` [Example 154] and `CC(C)c1ccc(C(=O)c2cn(Cc3cccc(Br)n3)c3ccccc3c2=O)cc1` [Example 148] cannot be ordered by IC50: under 100 nM for the first, under 100 nM for the second.

`Cc1cc(C(=O)c2cn(Cc3cccc(C#N)n3)c3ccccc3c2=O)cnc1C` [Example 85] and `Cc1ccc(C(=O)c2cn(Cc3cccc(C#N)n3)c3ccccc3c2=O)cc1C` [Example 81] cannot be ordered by IC50: under 100 nM for the first, under 100 nM for the second.

`Cc1cccc(Cn2cc(C(=O)c3cnccn3)c(=O)c3ccccc32)n1` [Example 63] and `Cc1ccc(C(=O)c2cn(Cc3cccc(C(N)=O)n3)c3ccccc3c2=O)cc1C` [Example 86] fall in the same range of IC50: 500 to 20000 nM for the first, 500 to 20000 nM for the second.

`Cc1ccc(C(=O)c2cn(Cc3cccc(Br)n3)c3cccnc3c2=O)cc1C` [Example 105] and `Cc1ccc(C(=O)c2cn(Cc3cccc(Br)n3)c3cc(F)c(F)cc3c2=O)cc1C` [Example 73] cannot be ordered by IC50: under 100 nM for the first, under 100 nM for the second.

`O=C(c1ccccc1-c1cnco1)c1cn(Cc2cccc(Br)n2)c2ccccc2c1=O` [Example 167] and `O=C(NC1CC1)c1ccccc1C(=O)c1cn(Cc2cccc(Br)n2)c2ccccc2c1=O` [Example 170] fall in the same range of IC50: 500 to 20000 nM for the first, 500 to 20000 nM for the second.

Compared with `COc1ccc(C(=O)c2cn(Cc3cccc(C#N)n3)c3ncccc3c2=O)cc1C` [Example 194], `COc1ccc(C(=O)c2cn(Cc3cccc(C)n3)c3nc(C)c(C)cc3c2=O)cc1C` [Example 192] is higher in IC50: under 100 nM for the first, 100 to 500 nM for the second. The first is the more potent here.

`Cc1ccc(C(=O)c2cn(Cc3ccccc3C(F)(F)F)c3ccccc3c2=O)cc1C` [Example 36] and `Cc1ccc(C(=O)c2cn(Cc3ccccc3F)c3ccc(C(F)(F)F)cc3c2=O)cc1C` [Example 14] fall in the same range of IC50: 500 to 20000 nM for the first, 500 to 20000 nM for the second.

`Cc1ccc(C(=O)c2c(C)n(Cc3cccc(Br)n3)c3ccccc3c2=O)cc1C` [Example 72] and `CNCc1cccc(Cn2cc(C(=O)c3ccc(C)c(C)c3)c(=O)c3ccccc32)n1` [Example 117] fall in the same range of IC50: 500 to 20000 nM for the first, 500 to 20000 nM for the second.

`Cc1ccc(C(=O)c2cn(Cc3cccc(Br)[n+]3[O-])c3ccccc3c2=O)cc1C` [Example 88] and `Cc1ccc(C(=O)c2cn(Cc3cccc(S(C)(=O)=O)n3)c3ccccc3c2=O)cc1C` [Example 78] fall in the same range of IC50: 100 to 500 nM for the first, 100 to 500 nM for the second.

First: Cc1cc2c(=O)c(C(=O)c3ccc(C)c(C)c3)cn(Cc3cccc(Br)n3)c2c(C)n1 [Example 109]
Second: Cc1ccc2c(=O)c(C(=O)c3cnc(C)c(C)c3)cn(Cc3cccc(Br)n3)c2n1 [Example 146]
The IC50 of the first is higher: 500 to 20000 nM for the first, 100 to 500 nM for the second. The second is the more potent here.

`Cc1ccc(C(=O)c2cn(Cc3cccc(NS(C)(=O)=O)n3)c3ccccc3c2=O)cc1C` [Example 60] and `Cc1cc(C(=O)c2cn(Cc3cccc(Br)n3)c3ccccc3c2=O)c[n+]([O-])c1C` [Example 112] fall in the same range of IC50: 100 to 500 nM for the first, 100 to 500 nM for the second.

`Cc1ccc(C(=O)c2cn(Cc3cccnc3)c3cc4c(cc3c2=O)OCO4)cc1C` [Example 2] and `Cc1ccc(C(=O)c2cn(Cc3ccccn3)c3ccc(C(F)(F)F)cc3c2=O)cc1C` [Example 13] fall in the same range of IC50: 500 to 20000 nM for the first, 500 to 20000 nM for the second.

`COCCOc1ccc(C(=O)c2cn(Cc3cccc(Br)n3)c3ccccc3c2=O)cc1C` [Example 127] and `CC(C)Oc1ccc(C(=O)c2cn(Cc3cccc(Br)n3)c3ccccc3c2=O)cc1` [Example 218] fall in the same range of IC50: 100 to 500 nM for the first, 100 to 500 nM for the second.

Compared with `Cc1ccc(C(=O)c2cn(CCc3ccccc3)c3ccccc3c2=O)cc1C` [Example 27, 3-(3,4-Dimethyl-benzoyl)-1-phenethyl-1H-quinolin-4-one], `Cc1cccc(Cn2cc(C(=O)c3ccc4c(c3)OCCO4)c(=O)c3cccnc32)n1` [Example 164] is lower in IC50: 500 to 20000 nM for the first, under 100 nM for the second.

First: Cc1cccc(Cn2cc(C(=O)c3cnc4c(c3)OCCO4)c(=O)c3cc(C)c(C)nc32)n1 [Example 191]
Second: COc1ccc(C(=O)c2cn(Cc3cccc(Br)n3)c3nc(C(F)(F)F)ccc3c2=O)cc1F [Example 226]
The IC50 of the first is lower: 100 to 500 nM for the first, 500 to 20000 nM for the second.
